Measured values: patent publication US9327025B2, “Enriched 10-boron composition for cancer therapy and a method of synthesizing the same” (priority 2012, dated 2016)
Like-named read-outs stand apart in the source and are kept apart here.

How the values were obtained:
[1] = tested on: breast cancer cells MDA-MB-231
[2] = tested on: MDA-MB241 cell line (malignant breast cells); details: 24 hours
Method: MTT assay method was applied for evaluating the effects of Boron complex on MDA-MB241 cell line (malignant breast cells) in in vitro environment.
This is due to the fact that since food composition was used in the synthesis of the drug, tumor cells think that they are provided with food compostions. But after a while the number of cells will decrease by the drug. For different concentrations of Boron including 5 mg, 10 mg, 25 mg, 50 mg and 100 mg, these decreases are equal to 80, 50, 64, 79, and 36. After 48 hours similar results with little differences have been observed with 24 hours time interval.

[3] = cancerous mice; in vitro and in vivo tests
From the text: In this research, a new smart drug, Enriched Boron-10 Calcium Fructo Borate (E^10BCFB), was investigated for using in cancer cells treatment in BNCT methods. […] E^10BCFB is in fact an artificial Calcium Fructo-Borate which is synthesized chemically with 10-Boron.

## Enriched 10-Boron Calcium Fructo Borate [E^10BCFB]
3 hours after injection of 41.1 mg complex per 30 gram animal weight
  concentration ratio of tumor to the 10-Boron concentration in the blood: about 4.5
3 hours after intraperitoneal injection of 41.1 mg complex per 30 gram animal weight, blood
  concentration of 10-Boron in the blood: about 6.1 ppm
3 hours after intraperitoneal injection of 41.1 mg complex per 30 gram animal weight, tumor
  accumulation of 10-Boron in tumor cells: about 27 ppm
[1]; MDA-MB-231
  growth of breast cancer cells: prevents the growth of breast cancer cells
[1]; tumor cells treated with the drug
  Caspase-3 activity: increases the Caspase-3 activity
[2]; concentration of Boron 5 mg
  decrease of the number of cells (MTT): 80
[2]; concentration of Boron 10 mg
  decrease of the number of cells (MTT): 50
[2]; concentration of Boron 25 mg
  decrease of the number of cells (MTT): 64
[2]; concentration of Boron 50 mg
  decrease of the number of cells (MTT): 79
[2]; concentration of Boron 100 mg
  decrease of the number of cells (MTT): 36
[3]
  safety of the drug: safe
